PMC5547389, “Structure-activity relationships and molecular docking studies of chromene and chromene based azo chromophores: A novel series of potent antimicrobial and anticancer agents” (EXCLI Journal, 2017)
≈ marks a conversion by molar mass, not a printed value. Like-named read-outs stand apart in the source and are kept apart here.

Tests used:
[1] = tested on: Streptococcus pneumoniae (RCMB 010010); assay: Well diffusion assay (inhibition zone); assay type: cell-based
Procedure: (§1) The microorganism inoculums were uniformly spread using sterile cotton swabs on a sterile Petri dish malt extract agar (for fungi) and nutrient agar (for bacteria). One hundred cubic millimeters of each sample was added to each well (10 mm-diameter holes were cut in the agar gel, 20 mm apart from one another). The systems were incubated for 24-48 h at 37 °C (for bacteria) and at 28 °C (for fungi). After incubation, the microorganism growth was observed. Inhibition zones of the bacterial and fungal growth were measured in millimeters. Tests were performed in triplicate (Cappuccino and Sherman, 1999[12]; Vanden Berghe and Vlientinck, 1991[62]).
(§2) All the newly synthesized compounds described in this report were screened for both antibacterial and antifungal activity via the reported agar diffusion well method (Vanden Berghe and Vlietinck, 1991[62]). The inhibition zones and minimum inhibitory concentrations (MIC) were determined by the serial dilution method (Cappuccino and Sherman, 1999[12]). The antimicrobial activity of the synthesized compounds was tested against a broad panel of microorganisms including two Gram-positive bacteria: Streptococcus pneumoniae (RCMB 010010) and Bacillus subtilis (RCMB 010067), two Gram-negative bacteria: Pseudomonas aeruginosa (RCMB 010043) and Escherichia coli (RCMB 010052), and four fungi: Aspergillus fumigatus (RCMB 02568), Syncephalastrum racemosum (RCMB 05922), Geotricum candidum (RCMB 05097), and Candida albicans (RCMB 05036). Ampicillin, ciprofloxacin, gentamicin and amphotericin B were used as positive control drugs (Atta-ur-Rahman and Thomsen, 2001[7]; Smania et al., 1999[57]). […] While in the case of Gm-ve bacteria, they had weak activity. In addition, certain strains of fungi were sensitive to tested compounds with an IZ range from 12-25 except Candida albicans.

[2] = tested on: Bacillus subtilis (RCMB 010067); assay: Well diffusion assay (inhibition zone); assay type: cell-based
Procedure: as §1, §2

[3] = tested on: Escherichia coli (RCMB 010052); assay: Well diffusion assay (inhibition zone); assay type: cell-based
Procedure: as §1, §2

[4] = tested on: Syncephalastrum racemosum (RCMB 05922); assay: Well diffusion assay (inhibition zone); assay type: cell-based
Procedure: as §1, §2

[5] = tested on: Geotricum candidum (RCMB 05097); assay: Well diffusion assay (inhibition zone); assay type: cell-based; details: read-out: Inhibition Zone (IZ) diameter, G.C
Procedure: as §1, §2

[6] = tested on: Aspergillus fumigatus (RCMB 02568); assay: Well diffusion assay (inhibition zone); assay type: cell-based
Procedure: as §1, §2

[7] = tested on: Streptococcus pneumoniae (RCMB 010010); assay: MIC by serial dilution method; assay type: cell-based; details: RCMB010010, read-out: Minimum inhibitory concentration, MIC, S.P
Procedure: as §2

[8] = tested on: Bacillus subtilis (RCMB 010067); assay: MIC by serial dilution method; assay type: cell-based; details: RCMB010067, read-out: Minimum inhibitory concentration, MIC, B.S
Procedure: as §2

[9] = tested on: Escherichia coli (RCMB 010052); assay: MIC by serial dilution method; assay type: cell-based; details: RCMB010052, read-out: Minimum inhibitory concentration, MIC, E.C
Procedure: as §2

[10] = tested on: Syncephalastrum racemosum (RCMB 05922); assay: MIC by serial dilution method; assay type: cell-based
Procedure: as §2

[11] = tested on: Geotricum candidum (RCMB 05097); assay: MIC by serial dilution method; assay type: cell-based; details: read-out: Minimum inhibitory concentration, MIC, G.C
Procedure: as §2

[12] = tested on: Aspergillus fumigatus (RCMB 02568); assay: MIC by serial dilution method; assay type: cell-based
Procedure: as §2

HCT-116, MCF-7, HEPG-2 = assay: Cytotoxic screening, statements over the three cell lines; assay type: cell-based; details: Homo sapiens, read-out: IC50, range over the three cell lines
Procedure: Human colon carcinoma (HCT-116), human hepatocellular carcinoma (HEPG-2), adenocarcinomic human alveolar basal epithelial cell (A-549), and human breast adenocarcinoma (MCF-7) cell lines were obtained from the American Type Culture Collection (ATCC, Rockville, MD). The cells were grown on RPMI-1640 medium supplemented with 10 % inactivated fetal calf serum and 50 µg/ml gentamycin. The cells were maintained at 37 °C in a humidified atmosphere with 5 % CO2 and were subcultured two to three times a week. Potential cytotoxicity of the compounds was evaluated on tumor cells using the method of Gangadevi and Muthumary (2007[21]) (Klancnik et al., 2010[36]). The cells were grown as monolayers in growth RPMI-1640. The monolayers of 104 cells adhered at the bottom of the wells in a 96-well microtiter plate incubated for 24 h at 37 °C in a humidified incubator with 5 % CO2. The monolayers were then washed with sterile phosphate buffered saline (0.01 M pH 7.2) and simultaneously the cells were treated with 100 µL from different dilutions of tested sample in fresh maintenance medium and incubated at 37 °C. A control of untreated cells was made in the absence of tested sample. Positive controls containing doxorubicin were also tested as a reference drug for comparison. Six wells were used for each concentration of the test sample. Every 24 hours an observation under the inverted microscope was made. The number of the surviving cells was determined by staining the cells with crystal violet (Mosmann, 1983[42]; Gangadevi and Muthumary, 2007[21]) followed by cell lysing using 33 % glacial acetic acid and reading the absorbance at 590 nm using microplate reader (SunRise, TECAN, Inc, USA) after well mixing. The absorbance values from untreated cells were considered as 100 % proliferation. The number of viable cells was determined using microplate reader as previously mentioned before and the percentage of […] was calculated as [1-(ODt/ODc)] x 100 % where ODt is the mean optical density of wells treated with the tested sample and ODc is the mean optical density of untreated cells. The relation between surviving cells and drug concentration was plotted to get the survival curve of each tumor cell line after treatment with the specified compound. The 50 % inhibitory concentration (IC50), the concentration required to cause toxic effects in 50 % of intact cells, was estimated from graphic plots.
The in vitro cytotoxic activity was performed by MTT assay (Mosmann, 1983[42]; Alley et al., 1988[6]) against three human carcinoma cell lines: Human colon carcinoma (HCT-116), human breast adenocarcinoma (MCF-7), and human hepatocellular carcinoma (HEPG-2).

[13] = tested on: human hepatocellular carcinoma (HEPG-2); assay: Cytotoxic screening; assay type: cell-based; details: HepG2, read-out: IC50 HepG-2
Procedure, shortened: (§3)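 Read-out is crystal violet staining (the text also names MTT), lysis in 33 % acetic acid, A590, with untreated cells as 100 %. IC50 was estimated graphically from survival curves.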

[14] = tested on: human breast adenocarcinoma (MCF-7); assay: Cytotoxic screening; assay type: cell-based
Procedure, shortened: as §3

[15] = tested on: Human colon carcinoma (HCT-116); assay: Cytotoxic screening; assay type: cell-based
Procedure, shortened: as §3

[16] = tested on: Gm+ve bacteria, Gm-ve bacteria, fungi; assay: Well diffusion assay, statements over groups of microorganisms; assay type: cell-based
Procedure: as §1
All the newly synthesized compounds described in this report were screened for both antibacterial and antifungal activity via the reported agar diffusion well method (Vanden Berghe and Vlietinck, 1991[62]). The inhibition zones and minimum inhibitory concentrations (MIC) were determined by the serial dilution method (Cappuccino and Sherman, 1999[12]). […]

[17] = tested on: Candida albicans (RCMB 05036); assay: Well diffusion assay (inhibition zone); assay type: cell-based; details: RCMB05036, 5 mg/mL in DMSO, fungi, read-out: Inhibition Zone (IZ) diameter, C.A
Procedure: as §1, §2

[18] = RCMB010010, 5 mg/mL in DMSO, Gm+ve, read-out: Inhibition Zone (IZ) diameter, S.P
[19] = RCMB010067, 5 mg/mL in DMSO, Gm+ve, read-out: Inhibition Zone (IZ) diameter, B.S
[20] = RCMB010052, 5 mg/mL in DMSO, Gm-ve, read-out: Inhibition Zone (IZ) diameter, E.C
[21] = RCMB05922, 5 mg/mL in DMSO, fungi, read-out: Inhibition Zone (IZ) diameter, S.R
[22] = RCMB02568, 5 mg/mL in DMSO, fungi, read-out: Inhibition Zone (IZ) diameter, A.F
[23] = Homo sapiens, MCF7; read-out: IC50 MCF-7
[24] = Homo sapiens, HCT-116; read-out: IC50 HCT-116

| SMILES | IC50 [13] [µg/mL] | zone of inhibition at 5000 µg/mL [1, 18] [mm] | zone of inhibition at 5000 µg/mL [2, 19] [mm] | zone of inhibition at 5000 µg/mL [3, 20] [mm] | zone of inhibition at 5000 µg/mL [4, 21] [mm] | zone of inhibition at 5000 µg/mL ([5]; 5 mg/mL in DMSO, fungi) [mm] | zone of inhibition at 5000 µg/mL [6, 22] [mm] | melting point [°C] | IZ range against Gm+ve, Gm-ve bacteria, and fungi [16] | IC50 [14, 23] [µg/mL] | IC50 [15, 24] [µg/mL] | zone of inhibition at 5000 µg/mL [17] [mm] | other results |
| --- | --- | --- | --- | --- | --- | --- | --- | --- | --- | --- | --- | --- | --- |
| Nc1cc2ccccc2cc1O [compound 1, 3-amino-2-naphthol] | 60.5 (≈ 380 µM) | – | – | – | – | – | – | – | – | – | – | – | zone of inhibition at 5000 µg/mL ([1]; RCMB010010, read-out: Inhibition Zone (IZ) diameter, S.P): 15.9 mm; zone of inhibition at 5000 µg/mL ([2]; RCMB010067, read-out: Inhibition Zone (IZ) diameter, B.S): 17.8 mm; zone of inhibition at 5000 µg/mL ([3]; RCMB010052, read-out: Inhibition Zone (IZ) diameter, E.C): 15.5 mm; zone of inhibition at 5000 µg/mL ([4]; RCMB05922, read-out: Inhibition Zone (IZ) diameter, S.R): 14.3 mm; zone of inhibition at 5000 µg/mL [5]: 19.2 mm; zone of inhibition at 5000 µg/mL ([6]; RCMB02568, read-out: Inhibition Zone (IZ) diameter, A.F): 16.6 mm; MIC [7]: 15.6 µg/mL (≈ 98.1 µM); MIC [8]: 31.2 µg/mL (≈ 196 µM); MIC [9]: 7.8 µg/mL (≈ 49 µM); MIC ([10]; RCMB05922, read-out: Minimum inhibitory concentration, MIC, S.R): 7.81 µg/mL (≈ 49.1 µM); MIC [11]: 62.5 µg/mL (≈ 393 µM); MIC ([12]; RCMB02568, read-out: Minimum inhibitory concentration, MIC, A.F): 15.6 µg/mL (≈ 98.2 µM); IC50 (HCT-116, MCF-7, HEPG-2): 60 to 230 µg/mL (≈ 377 to 1440 µM); IC50 ([14]; Homo sapiens, MCF7, read-out: IC50 MCF-7): 230 µg/mL (≈ 1440 µM); IC50 ([15]; Homo sapiens, HCT-116, read-out: IC50 HCT-116): 218 µg/mL (≈ 1370 µM) |
| COc1ccc(C2C(C#N)=C(N)Oc3c2ccc2c(N)cccc32)cc1 (stereo not shown) [7b, 2,7-Diamino-4-(4-methoxy-phenyl)-4H-benzo[h]chromene-3-carbonitrile] | 28.2 (≈ 82.1 µM) | 22.4 | 23.2 | 22.1 | 20.3 | 22.6 | 21.6 | 185 | 18-23 mm | 25.9 (≈ 75.4 µM) | 44.1 (≈ 128 µM) | – | – |
| N#CC1=C(N)Oc2c(ccc3c(N)cccc23)C1c1c(F)cc(F)cc1F (stereo not shown) [7d, 2,7-Diamino-4-(2,4,6-trifluoro-phenyl)-4H-benzo[h]chromene-3-carbonitrile] | 52.3 (≈ 142 µM) | 21.6 | 22.3 | 20.8 | 18.1 | 22.4 | 20.3 | 235 | 18-23 mm | 54 (≈ 147 µM) | 61.3 (≈ 167 µM) | – | – |
| C[C@@H]1[C@H](O)[C@@H](C)/C=C/C=C/C=C/C=C/C=C/C=C/C=C/[C@H](O[C@@H]2O[C@H](C)[C@@H](O)[C@H](N)[C@@H]2O)C[C@@H]2O[C@](O)(C[C@@H](O)C[C@@H](O)[C@H](O)CC[C@@H](O)C[C@@H](O)CC(=O)O[C@H]1C)C[C@H](O)[C@H]2C(=O)O [Amphotericin B, reference compound] | – | – | – | – | 19.7 | 28.7 | 23.7 | – | – | – | – | 25.4 | MIC ([10]; RCMB05922, fungi, read-out: Minimum inhibitory concentration, MIC, S.R): 3.9 µg/mL (≈ 4.22 µM); MIC ([11]; fungi): 0.015 µg/mL (≈ 0.0162 µM); MIC ([12]; RCMB02568, fungi, read-out: Minimum inhibitory concentration, MIC, A.F): 0.24 µg/mL (≈ 0.26 µM) |
| CC(=O)c1ccc(N=Nc2cc3c(cc2O)OC(N)=C(C#N)C3c2ccc(F)cc2)cc1 (stereo not shown) [13d, 6-(4-Acetyl-phenylazo)-2-amino-4-(4-fluoro-phenyl)-7-hydroxy-4H-chromene-3-carbonitrile] | 85 (≈ 198 µM) | 12.9 | 13.2 | 10.8 | 11.4 | – | 13.4 | 265 | – | 80 (≈ 187 µM) | 75 (≈ 175 µM) | 8 | – |
